{
  "source": "patent US8833457B2",
  "about": "“Sulfates and phosphates as allosteric effectors in mannanohydrolase enzyme breakers” (Baker Hughes Incorporated, priority 2011, dated 2014)",
  "test_system": "mannanohydrolase, GBW-22C",
  "assay": "Viscosity reduction of borate-crosslinked guar gel by mannanohydrolase enzyme breaker with allosteric effector (Chandler HTHP 5500 Viscometer)",
  "type": "biochemical",
  "details": "150° F., 500 psi",
  "procedure": "A solution was made comprising: 17 ppt of guar polymer, GW-3LDF; 1 gpt of clay stabilizer, Claytreat-3C; 1.5 gpt of buffer, BF-7L; 1 gpt of crosslinking agent, XLW-32; 1 gpt mannanohydrolase, GBW-22C, diluted 1/100 with distilled water; and 1 gpt of a 1% wt. solution of Na2SO4 (all components available from Baker Hughes Inc.). The solution was mixed with an overhead stirrer. 52 mL of crosslinked fluid was loaded on to a Chandler HTHP 5500 Viscometer and run at 500 psi, 150° F., and 100 s^−1 for an hour.\nTo compare the effects of phosphate and sulfate a solution was made comprising: 17 ppt of guar polymer, GW-3LDF; 1 gpt of clay stabilizer, Claytreat-3C; 1.5 gpt of buffer, BF-7L; 1 gpt of crosslinking agent, XLW-32; 1 gpt mannanohydrolase, GBW-22C, diluted 1/100 with distilled water; and 1 gpt of a 1% wt. solution of K2HPO4 (all components available from Baker Hughes Inc.).",
  "data": [
    {"smiles": "O=S(=O)([O-])[O-].[Na+].[Na+]", "note": "[Na2SO4]", "values": [
      {"measurement": "difference in enzyme activity between high and smaller concentrations of the effector (FIG. 3)", "setting": "3 g/L versus 1 gpt 20% wt. Na2SO4 or 2 mg/L, 100 s^−1", "result": "does not appear to be a difference"},
      {"measurement": "effect of the effector on activity of the mannanohydrolase enzyme against the guar polymer (FIG. 3)", "setting": "17 ppt GW-3LDF guar, XLW-32 crosslinker, 1 gpt GBW-22C diluted 1/100, 1 gpt of 1% wt. Na2SO4, 100 s^−1, one hour", "result": "drastically improves the activity of the mannanohydrolase enzyme"}
    ]}
  ]
}
